Results on 1 compound are retold here after patent US5514648A, “Fungicidally active compounds” (priority 1990, dated 1996).

The subject of series [1] is Botrytis cinerea. As to the kind of experiment: Activity against Botrytis cinerea on tomato plants. The class given is in vivo. To be noted: liquid suspension 0.035 mg active ingredient per ml; inoculated after 24 hours; 6 days incubation; controls all overgrown. The method, then:
Tomato plants (variety "First in Field", 3 weeks old) were treated with a liquid suspension containing 0.035 mg active ingredient per ml. The plants were kept 24 hours in a green house to dry before they were inoculated with a spore suspension containing 10^5 Botrytis cinerea spores per ml in 25% grapefruit juice. […] Control plants that were treated as above except for the application of the active ingredient in suspension were all overgrown with Botrytis cinerea.

The next series relates to Monilinia fructigena. Description: Activity against Monilinia fructigena on apples (Golden Delicious). To be noted: for number of infected wounds (maximum 20): 5 days, 0 mg ai/l gives 20. The class given is in vivo. The method, then:
Apples were surface sterilized, each punctured 5 times with a nail 2.1 mm in diameter, dipped in suspensions containing 0, 0.5, 5, 50, and 500 mg a.i. per 1. The active ingredient was (i) BK 202, (ii) benomyI(BENLATE®), (iii) iprodione(ROVRAL®). Four apples were punctured and treated with each concentration of the three pesticides giving a total of 20 wounds per concentration. The fruits were placed in plastic containers in rows with the wounds facing upwards. After 24 hours, the wounded areas were sprayed with a suspension of Monilinia fructigena containing 1×10^5 spores per ml. The containers were then covered with polyethylene bags and kept at room temperature (approximately22° C.).
After 5 days the effects were assessed by counting the number of infected wounds (maximum 20 infected wounds per treatment).

Another series deals with S. sclerotiorum. As to the kind of experiment: Fungicidal activity, mycelial growth on potato dextrose agar. The class given is cell-based, Sclerotinia sclerotiorum. To be noted: in as low concentrations as 0.0016 μg/ml, 3 to 6 days. On the procedure:
(§1) Experiments were carried out to determine the potency of the compound of formula IV towards various fungi. The active ingredient was dissolved in 60% ethanol and added to cooled potato dextrose agar to give final concentrations of 25, 5, 1, 0.2, 0.04 and 0.0016 μg a.i. per ml agar, respectively. Control dishes contained no active ingredient.
(§2) 10 ml Agar was poured into 9 cm petri dishes and each concentration was inoculated with actively growing mycelium of the fungal isolates tested for. The dishes were incubated at the optimum temperature for growth of the isolates for 3 to 6 days after which time the growth was measured in mm and compared to the controls.
(§3) The test isolates covered a broad range of fungi within the Oomycetes, the Ascomycetes, the Basidiornycetes, the Deuterornycetes, and the Zygomycetes.

Series [2] is described as follows: Toxicology IC50, Chemiluminescent. To be noted: estimated. On the procedure: Based on these tests the IC50 values for BK 202 were estimated as: Chemiluminescent >10 μg/ml
For the next series, the system named is Deuterornycetous species. As to the kind of experiment: Fungicidal activity, mycelial growth on potato dextrose agar. The class given is cell-based, Deuterornycetes. To be noted: 25 to 0.0016 μg a.i. per ml agar. On the procedure:
as §1, §2, §3

Another series deals with A. alternata. The series is described as above. To be noted: 25 to 0.0016 μg a.i. per ml agar, 3 to 6 days. Type of series: cell-based, Alternaria alternata. On the procedure:
as §1, §2, §3

The test system of series [3] is Botrytis cinerea isolate C (sensitive, normal). Description: In vitro agar growth assay, sensitive Botrytis cinerea. Type of series: cell-based. To be noted: 3 days, 25 C, control 74. On the procedure: Activity against fungicide resistant Botrytis cinerea isolates One isolate resistant to BENLATE® (isolate A), and one isolate resistant to BENLATE®,ROVRAL® and SUMISCLEX® (isolate B) were isolated from plants which had been sprayed with the above mentioned pesticides. The effect of BK 202 on these isolates was determined in an in vitro assay and compared with the three commercial pesticides. The fungicides were added to agar and dispensed in petri dishes at different concentrations and were inoculated with a sensitive (normal(isolate C)) and the two resistant strains. After 3 days at a temperature of 25 C growth was measured in mm.

Another series relates to P. teres. As to the kind of experiment: Fungicidal activity, mycelial growth on potato dextrose agar. The class given is cell-based, Pyrenophora teres. To be noted: in as low concentrations as 0.0016 μg/ml, 3 to 6 days. The method, then:
as §1, §2, §3

The next series deals with B. cinerea. The description is as above. The class given is cell-based, Botrytis cinerea. To be noted: in as low concentrations as 0.0016 μg/ml, 3 to 6 days. On the procedure:
as §1, §2, §3

A further series relates to F. lycopersici. The description is as above. Type of series: cell-based, Fusarium lycopersici. To be noted: 25 to 0.0016 μg a.i. per ml agar, 3 to 6 days. The method, then:
as §1, §2, §3

Series [4] can be described thus: in vitro testing of dermal irritation (Skintex). The source says: The toxicity of BK 202 was investigated in the following tests using the compound of formula IV in crystaline form: […]
Ames spot tests and in vitro testing of dermal irritation (Skintex®).

The next series deals with A. pisi. Description: Fungicidal activity, mycelial growth on potato dextrose agar. The class given is cell-based, Ascochyta pisi. To be noted: in as low concentrations as 0.0016 μg/ml, 3 to 6 days. The method, then: as §1, §2, §3
Another series concerns A. fumigatus. The series is described as above. Type of series: cell-based, Aspergillus fumigatus. To be noted: in as low concentrations as 0.0016 μg/ml, 3 to 6 days. On the procedure: as §1, §2, §3
In a further series the test system is P. digitatum. The series is described as above. The class given is cell-based, Penicillium digitatum. To be noted: in as low concentrations as 0.0016 μg/ml, 3 to 6 days. The method, then:
as §1, §2, §3

Another series deals with V. inequalis. The description is as above. Type of series: cell-based, Venturia inequalis. To be noted: in as low concentrations as 0.0016 μg/ml, 3 to 6 days. On the procedure: as §1, §2, §3
In series [5] the test system is Botrytis cinerea. As to the kind of experiment: Field trial, Botrytis cinerea on strawberries (Senga-Sengana). Type of series: in vivo. To be noted: 100, 300, and 900 g a.i./ha, four sprayings. The source says: Field trial performed in Funen, Denmark, in accordance with the EPPO guidelines (Guideline for the Biological Evaluation of Fungicities. Botrytis cinerea on Strawberries). The plot size was 20 m^2 and three replicates were used. The active compound was used in a test formulation containing approximately 10% active ingredient (a.i.). Three concentrations of active compound were applied: 100, 300, and 900 g a.i./ha. The spraying volume was 1200 l/ha. The strawberries were sprayed at the following growth stages: T1, onset of flowering; T2 : 10% flowering; T3, 50% flowering; and T4, 80% flowering. The commercial fungicide ROVRAL® was used as standard reference. The assessment was performed by counting and weighing healthy and infected strawberries, respectively.

The subject of series [6] is Botrytis cinerea. Description: Activity against Botrytis cinerea on apples (Golden Delicious). To be noted: suspension 9.8 μg active ingredient per ml; inoculated the following day; one week, 18°-20° C.; untreated fruits 100% infected. Type of series: in vivo. On the procedure:
Artificially injured apples were sprayed with a suspension containing 9.8 μg active ingredient per ml.On the following day the treated fruits were inoculated with a spore suspension of the fungus containing 1×10^5 /ml, and incubated for a week at high air humidity and 18°-20° C. At the evaluation the infected places of injury were counted and from that the fungicidal effect of the test substance evaluated. […] The untreated fruits were 100% infected with Botrytis cinerea.

The next series relates to M. fructigena. As to the kind of experiment: Fungicidal activity, mycelial growth on potato dextrose agar. The class given is cell-based, Monilinia fructigena. To be noted: in as low concentrations as 0.0016 μg/ml, 3 to 6 days. On the procedure: as §1, §2, §3

Where a SMILES comes first, the peptide text is derived from it. [ ]: non-standard residue; d: D form. NMeI = CC[C@H](C)[C@H](NC)C(=O)O; NMeD = CN[C@@H](CC(=O)O)C(=O)O; NMeV = CN[C@H](C(=O)O)C(C)C; Pip = O=C(O)[C@@H]1CCCCN1; dLac = C[C@@H](O)C(=O)O

As for `CC[C@H](C)[C@H]1C(=O)NCC(=O)N(C)[C@@H](C(C)C)C(=O)N[C@@H](Cc2ccc(OC)cc2)C(=O)O[C@H](C)C(=O)N2CCCC[C@H]2C(=O)N(C)[C@@H](C(C)C)C(=O)N[C@@H](C(C)C)C(=O)N(C)[C@@H](CC(=O)O)C(=O)N(C)[C@@H](C(C)C)C(=O)N1C` [BK 202, cyclo- Pec-MeVal-Val-MeAsp-MeVal-MeIle-Gly-MeVal-TyrOMe-D-Lact!] (cyclo(G[NMeV]Y(Me)[dLac][Pip][NMeV]V[NMeD][NMeV][NMeI])), in the series on Botrytis cinerea [1], the “attack from the fungus on tomato plants” value is on record as “No attack from the fungus was observed”. The “number of infected wounds (maximum 20)” value in the series on Monilinia fructigena (0.5 mg ai/l dip) is 18; in the series with Monilinia fructigena (5.0 mg ai/l dip), 14; in the series with Monilinia fructigena (50 mg ai/l dip), 7; in the series with Monilinia fructigena (500 mg ai/l dip), 1. In addition, in the series on Monilinia fructigena (versus BENLATE® and ROVRAL®), the “activity towards M. fructigena in comparison to the two commercial fungicides tested” value was “superior”. Moreover, the inhibition of growth result is on record as “very strong” with S. sclerotiorum; “weaker” with A. alternata; “very strong” in the series with P. teres; “very strong” in the series on B. cinerea; “weaker” in the series with F. lycopersici; “very strong” with A. pisi. Besides, the inhibition of growth entry in the series with A. fumigatus, with P. digitatum, in the series with V. inequalis and with M. fructigena was “very strong” throughout. In addition, in [2], the “IC50, Chemiluminescent” value was above 10 µg/mL. Besides, in the series on Deuterornycetous species, the fungicidal activity entry is “most active”. Moreover, the “growth, Isolate C” value in series [3] (concentration 0.125 (unit not given)), in series [3] (concentration 2 (unit not given)) and in series [3] (concentration 10 (unit not given)) was 0 mm throughout. Further, in [4], the “dermal irritation score, Skintex® test” value was “lowest possible irritation”. Further, in the series on Botrytis cinerea [5], the “fungicidal effect (degree of infection, FIG. 8) compared to ROVRAL®” value is recorded as “superior”. Besides, in the series on Botrytis cinerea [6], the “fungicidal effect on injured apples” value is reported as “prevented the growth of fungus completely”.
